Measured values published in patent publication US6087375A, “Methods of treating or preventing thromboses” (priority 1999, dated 2000).

How the values were obtained:
Type in all cases: binding
[1] = test system: rabbit erythrocyte membrane and cytosolic proteins; test: Immunoblotting and ELISA of rabbit erythrocyte ghost and cytosol fractions after conjugation
Procedure: Material and Methods: Rabbit erythrocytes were conjugated with the Argatroban-C6 NHS ester compound (compound YL-015-35). To do so, rabbit erythrocytes were isolated from fresh, citrated blood. In brief, an aliquot of blood was centrifuged for 5 minutes at 1800 rpm (Sorvall RC-5B, SH-3000 rotor). The buffy coat was pipetted off the top layer of the cell pellet and the remaining erythrocytes were washed four times with PBS, pH 7.4. Before the last wash, an aliquot of cells was removed for counting. The washed erythrocytes were resuspended at a density of 1×10^9 cells/mL. The total volume of cells labeled per sample was 3 mL. […] After the labeling reaction, the cells were centrifuged 4 minutes at 1800 rpm and the supernatant was discarded. The cells were resuspended in 10 ml of 0.5% DMSO/PBS and pelleted. The cells were washed one more time with 10 ml of PBS.
To quench any remaining reactive esters, the cells were then resuspended in 6 mg/mL BSA/PBS (Sigma, A-2934, lot 93HO291) and gently agitated at room temperature for 30 minutes. After quenching, the cells were washed five times with PBS. Cell yields were determined by cell counting.
After conjugation, the cells were hypotonically lysed and the ensuing membrane (ghost) and cytosol fractions were assayed by immunoblotting and ELISA. Specifically, conjugated erythrocyte pellets were chilled on ice for 5 minutes. Cells were then lysed on ice with 12 ml of ice-cold 5 mM phosphate buffer, pH 8.0 (PB) containing 1 mM Pefabloc and 40 μM leupeptin. Lysates were briefly vortexed and then centrifuged for 20 minutes at 4° C. at 15,000 rpm (SS-34, Sorvall RC-5B). The supernatant (hemolysate) was pipetted off the pellet, labeled and stored at 4° C. The pellets (ghosts) were washed four times with 12 ml of cold PBS and centrifuged as above. The protein content of the ghosts and hemolysates was determined by using the Micro BCA kit (Pierce; catalog no. 23231). Cell fractions were stored at -80° C.
Samples were then solubilized in 2×reducing cocktail (5% SDS, 50% glycerol, 0.5 M 2-mercaptoethanol in 0.25 M Tris-HCI, pH 6.8). […]

[2] = target: human serum albumin (HSA) (Homo sapiens, UniProt P02768); test: Mass spectrometric analysis of conjugation to HSA (HPLC/ESIMS); conditions: HSA 5 μM, 100 μM ester, 1 hour, room temperature
human serum albumin (HSA), sequence (P02768 25-609): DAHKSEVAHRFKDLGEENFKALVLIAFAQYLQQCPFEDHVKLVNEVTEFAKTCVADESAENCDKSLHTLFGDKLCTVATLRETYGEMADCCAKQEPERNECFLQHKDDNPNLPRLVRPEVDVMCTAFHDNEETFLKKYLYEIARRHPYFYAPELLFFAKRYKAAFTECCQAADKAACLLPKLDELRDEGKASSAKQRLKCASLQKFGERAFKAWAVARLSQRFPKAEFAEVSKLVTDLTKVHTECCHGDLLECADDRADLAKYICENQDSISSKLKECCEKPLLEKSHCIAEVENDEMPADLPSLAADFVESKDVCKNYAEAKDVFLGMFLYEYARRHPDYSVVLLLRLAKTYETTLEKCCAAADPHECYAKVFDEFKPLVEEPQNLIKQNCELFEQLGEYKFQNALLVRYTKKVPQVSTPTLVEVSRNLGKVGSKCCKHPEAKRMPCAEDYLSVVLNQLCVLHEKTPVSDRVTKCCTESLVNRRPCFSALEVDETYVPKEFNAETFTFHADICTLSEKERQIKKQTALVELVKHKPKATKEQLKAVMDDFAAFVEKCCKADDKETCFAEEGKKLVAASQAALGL
Procedure: (§1) All samples were analyzed using a high performance liquid chromatograph (HPLC) coupled in-line to an electrospray ionization (ESI) mass spectrometer (MS) which is termed HPLC/ESIMS. Some samples were also analyzed using a matrix-assisted laser desorption ionization (MALDI) time-of-flight (TOF) mass spectrometer which is termed (MALDI-TOFMS).
(§2) Samples for HPLC/ESIMS were either prepared as duplicate reaction samples or were part of the same reaction samples which were used in the ELISA assays described below. These samples were injected directly only the HPLC/ESIMS without any manipulation other than dilution with water, where the PBS, DMSO, and unreacted derivative molecules are separated from the protein-argatroban derivative molecule conjugate. Samples for MALDI-MS were first HPLC-purified and mixed 1:1 directly on the stainless steel analysis plate with a matrix of 10 mg/ml sinnapinic acid in 50% acetonitrile/50% water. The mixture was then dried with a gentle flow of air to allow for crystallization and inserted into the instrument for laser ionization.
(§3) The HPLC is a Hewlett Packard 1090 Series II liquid chromatogram with a diode array detector. The column used for separation is a Brownlee aquapore OD-300 reversed phase C18 column, 1 mm×10 cm, 300 Å pore size, 7 μm particle diameter. The mass spectrometer to which the HPLC is connected using fused Silica capillary tubing is a Sciex API-300 triple quadrupole mass spectrometer with an ionspray source to allow for atmospheric pressure ionization of a liquid flowing continuously into the instrument. The MALDI-TOFMS is a Perceptive Biosystems Voyager Elite DE instrument run in the linear mode.

[3] = target: rabbit serum albumin (RSA) (Oryctolagus cuniculus, UniProt P49065); test: Mass spectrometric analysis of conjugation to RSA (HPLC/ESIMS, MALDI-TOFMS); conditions: for average argatroban derivative molecules added per RSA molecule / range of argatroban derivative molecules added per RSA molecule: MALDI-MS
rabbit serum albumin (RSA), sequence (P49065 25-608): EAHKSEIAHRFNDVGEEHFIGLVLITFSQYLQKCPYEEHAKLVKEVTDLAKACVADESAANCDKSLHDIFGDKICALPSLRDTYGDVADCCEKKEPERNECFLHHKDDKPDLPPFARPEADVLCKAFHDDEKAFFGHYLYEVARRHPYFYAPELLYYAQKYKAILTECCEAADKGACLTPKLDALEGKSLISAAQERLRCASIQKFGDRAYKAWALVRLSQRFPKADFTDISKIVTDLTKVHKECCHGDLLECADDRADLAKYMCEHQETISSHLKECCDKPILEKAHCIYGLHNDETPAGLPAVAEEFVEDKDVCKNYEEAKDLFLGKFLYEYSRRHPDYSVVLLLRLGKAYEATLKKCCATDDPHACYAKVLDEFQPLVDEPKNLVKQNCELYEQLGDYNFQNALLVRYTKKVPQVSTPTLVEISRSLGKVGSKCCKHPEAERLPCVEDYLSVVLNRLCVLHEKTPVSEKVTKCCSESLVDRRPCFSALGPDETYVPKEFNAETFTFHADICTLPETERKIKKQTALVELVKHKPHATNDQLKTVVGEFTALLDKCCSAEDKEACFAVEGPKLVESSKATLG
Procedure: as §1, §2, §3
The conjugate was prepared according to the following protocol. […] Sham samples consist of the RSA incubated for the same length of time at RT in 2% DMSO in PBS. Each of the samples was then concentrated to a final volume of 1.5 mL using Amicon Centricon 30 filtration/concentration devices. The concentrated samples were then desalted on Pierce's 5 ML Kwiksep excellulose plastic desalting columns. The excluded volumes containing RSA or argatroban-C6-RSA were then subjected to BCA microprotein estimation and lyophilization. In addition, these samples were analyzed by LC/MS, sandwich ELISA assays (described above) to measure thrombin binding and immunoblotting.

[4] = concentration study, 10 μM ester, RSA 4.5 μM, HPLC/ESIMS

argatroban derivative molecules added [3, 4]: 1 argatroban derivative molecule
fraction of the RSA molecules to which 1 argatroban derivative molecule is added [3, 4]: ~ 50%
major species of RSA molecules ([3]; concentration study, 15 μM ester, RSA 4.5 μM): majority of RSA molecules are +1
major species of RSA molecules ([3]; concentration study, 20 μM ester, RSA 4.5 μM): majority of RSA molecules are +1 and +2
major species of RSA molecules ([3]; concentration study, 25 μM ester, RSA 4.5 μM): majority of RSA molecules are +1 and +2
major species of RSA molecules ([3]; concentration study, 100 μM ester, RSA 4.5 μM): no major species
Compound: CC1CNc2c(cccc2S(=O)(=O)NC(CCCN=C(N)N)C(=O)N2CCC(C)CC2C(=O)NCCCCCC(=O)ON2C(=O)CCC2=O)C1 (stereo not shown) [compound YL-015-35]
labeled proteins belonging to the glycophorin family ([1]; capture ELISA assay): a portion of the thrombin inhibitor-labeled proteins belong to the glycophorin family of proteins
presence of derivatized argatroban molecules on cytosolic proteins ([1]; rabbit erythrocytes, cytosol fraction): at the limit of detection
covalent modification of erythrocyte membrane proteins ([1]; rabbit erythrocytes, immunoblotting): numerous erythrocyte membrane proteins were covalently modified
covalent addition of argatroban derivative molecules per HSA molecule [2]: 1-8 argatroban derivative molecules per HSA molecule
covalent addition of argatroban derivative molecules per RSA molecule ([3]; HPLC/ESIMS, RSA 4.5 μM, 100 μM ester, 1 hour, room temperature): 1-8 argatroban derivative molecules per RSA molecule
covalent addition of argatroban derivative molecules per RSA molecule ([3]; HPLC/ESIMS, RSA 15 μM, 200 μM ester): 1-9 argatroban derivative molecules per RSA molecule
covalent addition of argatroban derivative molecules per RSA molecule ([3]; HPLC/ESIMS, RSA 30 μM, 300 μM ester): 1-9 argatroban derivative molecules per RSA molecule
average argatroban derivative molecules added per RSA molecule ([3]; RSA 15 μM, 200 μM ester): 5.6 argatroban derivative molecules added per RSA molecule
range of argatroban derivative molecules added per RSA molecule ([3]; RSA 15 μM, 200 μM ester): 1-10 argatroban derivative molecules added per RSA molecule
average argatroban derivative molecules added per RSA molecule ([3]; RSA 30 μM, 300 μM ester): 5.4 argatroban derivative molecules added per RSA molecule
range of argatroban derivative molecules added per RSA molecule ([3]; RSA 30 μM, 300 μM ester): 1-10 argatroban derivative molecules added per RSA molecule
argatroban derivative molecules added ([3]; concentration study, 1 μM ester, RSA 4.5 μM, HPLC/ESIMS): no detectable argatroban derivative molecules
argatroban derivative molecules added per RSA molecule ([3]; concentration study, 15 μM ester, RSA 4.5 μM, HPLC/ESIMS): 0-3 argatroban derivative molecules per RSA molecule
argatroban derivative molecules added per RSA molecule ([3]; concentration study, 20 μM ester, RSA 4.5 μM, HPLC/ESIMS): 1-3 argatroban derivative molecules per RSA molecule
argatroban derivative molecules added per RSA molecule ([3]; concentration study, 25 μM ester, RSA 4.5 μM, HPLC/ESIMS): 1-4 argatroban derivative molecules per RSA molecule
argatroban derivative molecules added per RSA molecule ([3]; concentration study, 100 μM ester, RSA 4.5 μM, HPLC/ESIMS): 2-10 argatroban derivative molecules per RSA molecule
